In assay [1] the test system is penicillin susceptible and resistant pneumococcal strains (2 quinolone resistant). In words: Time-kill testing of 12 pneumococcal strains. As to conditions: 12 penicillin susceptible and resistant pneumococcal strains; 24 h; bactericidal = ≧3 log10 cfu/ml (99.9%) reduction. The class given is cell-based, Streptococcus pneumoniae. How it is done:
For time-kill studies, glass tubes containing 5 ml cation-adjusted Mueller-Hinton broth (Difco)+5% lysed horse blood with doubling antibiotic concentrations were inoculated with 5×10^5 to 5×10^6 cfu/ml and incubated at 35° C. in a shaking water bath. […] Growth controls with inoculum but no antibiotic were included with each experiment (Pankuch, et al., Antimicrob. Agents Chemother. 38:2065-2072, 1994; Pankuch, et al., Antimicrob. Agents Chemother. 40:1653-1656, 1996).
Lysed horse blood was prepared as described previously. The bacterial inoculum was prepared by diluting a 16 h broth (medium as above) culture in the same medium. Dilutions required to obtain the correct inoculum (5×10^5-5×10^6 cfu/ml) were determined by prior viability studies using each strain (Pankuch, et al., Antimicrob. Agents Chemother. 38:2065-2072, 1994; Pankuch, et al., Antimicrob. Agents Chemother. 40: 1653-1656, 1996).
To inoculate each tube of serially diluted antibiotic, 50 μl of diluted inoculum was delivered by pipette beneath the surface of the broth. Tubes were then vortexed and plated for viability counts within 10 min (approximately 0.2 h). The original inoculum was determined by using the untreated growth control. Only tubes containing an initial inoculum within the range of 5×10^5 to 5×10^6 cfu/ml were acceptable (Pankuch, et al., Antimicrob. Agents Chemother. 38:2065-2072, 1994; Pankuch, et al., Antimicrob. Agents Chemother. 40:1653-1656, 1996).
Viability counts of antibiotic-containing suspensions were performed by plating ten-fold dilutions of 0.1 ml aliquots from each tube in sterile Mueller-t-Hinton broth onto trypticase soy agar 5% sheep blood agar plates (BBL). Recovery plates were incubated for up to 72 h. Colony Counts were performed on plates yielding 30-300 colonies. The lower limit of sensitivity of colony counts was 300 cfu/ml (Pankuch, et al., Antimicrob. Agents Chemother. 38:2065-2072, 1994; Pankuch, et al., Antimicrob. Agents Chemother. 40:1653-1656, 1996).
Time-kill assays were analysed by determining the number of strains which yielded a log10 cfu/ml of −1, −2 and −3 at 0, 3, 6, 12 and 24 h, compared to counts at time 0 h. Antimicrobials were considered bactericidal at the lowest concentration that reduced the original inoculum by ≧3 log10 cfu/ml (99.9%) at each of the time periods, and bacteriostatic if the inoculum was reduced by 0-3 log10 cfu/ml. […] The problem of bacterial carryover was addressed as described previously. For macrolide time-kill testing, only strains with MICs≦4.0 μg/ml were tested (Pankuch, et al., Antimicrob. Agents Chemother. 38:2065-9072, 1994; Pankuch, et al., Antimicrob. Agents Chemother. 40:1653-1656, 1996).

The test system of assay [2] is quinolone susceptible pneumococci (ciprofloxacin MICs ≦4.0 μg/ml). In words: Agar dilution MICs of 207 quinolone susceptible pneumococcal strains. It counts as cell-based, Streptococcus pneumoniae. As to conditions: Streptococcus pneumoniae, agar dilution; for MIC90: read-out: MIC90; for MIC: read-out: MIC range. The procedure:
All susceptible, and some intermediate and resistant strains, were recent U.S. isolates. The remainder of intermediate and resistant strains were isolated in South Africa, Spain, France, Central and Eastern Europe, and Korea. […] Additionally these strains were tested for mutations in parC, gyrA, parE, and gyrB (Pan, et al., Antimicrob. Agents Chemother. 40:2321-2326, 1996) and for efflux mechanism (Brenwald, et al., Antimicrob. Agents Chemother. 42:2032-2035, 1998). For time-kill studies, 4 penicillin susceptible, 4 intermediate and 4 resistant strains (2 quinolone resistant) were tested, while for PAE studies 5 quinolone susceptible and 1 resistant strains were studied.
(§1) Agar dilution methodology was performed on 234 strains as described previously (M. R. Jacobs, Clin. Infect. Dis. 15:119-127, 1992; Jacobs, et al., Rev. Med. Microbiol. 6:77-93, 1995), using Mueller-Hinton agar (BBL Microbiology Systems, Cockeysville, Md.) supplemented with 5% sheep blood. Broth MICs for 12 strains tested by time-kill and 6 tested by PAE were performed according to NCCLS recommendations (Methods for Dilution Antimicrobial Susceptibility Tests for Bacteria that Grow Aerobically, 3rd Edition, NCCLS, Villanova, Pa.) using cation-adjusted Mueller-Hinton broth with 5% lysed defibrinated horse blood. Standard quality control strains, including Streptococcus pneumoniae ATCC 49619, were included in each run of agar and broth dilution MICs.
In general terms: In agar dilution the substance is mixed into plates at graded concentrations.

Another assay relates to pneumococcal strains. In words: Microbroth dilution MICs of strains tested by time-kill and PAE. The class given is cell-based. To be noted: Streptococcus pneumoniae, read-out: Microdilution MIC. How it is done:
as §1

In assay [3] the test system is pneumococci (5 quinolone susceptible and 1 resistant strains). The assay can be described thus: Post-antibiotic effect (PAE) testing. It counts as cell-based, Streptococcus pneumoniae. As to conditions: 10×MIC; range over strains. How it is done: The post-antibiotic effect (PAE) (Craig, et al., V. Lorian (ed.) Antibiotics in Laboratory Medicine, Williams and Wilkins, Baltimore, pages 296-399, 1996) was determined by the viable plate count method, using Mueller-Hinton broth (MHB) supplemented with 5% lysed horse blood when testing pneumococci. […] Additionally, the one quinolone resistant strain was exposed at quinolone concentrations 5×MIC. Tubes containing 5 ml broth with antibiotic were inoculated with approximately 5×10^6 cfu/ml. Growth controls with inoculum but no antibiotic were included with each experiment. Tubes were placed in a shaking water bath at 35° C. for 1 h. At the end of the exposure period, cultures were diluted 1:1000 to remove antibiotic.
Viability counts were determined before exposure and immediately after dilution (0 h), and then every 2 h until tube turbidity reached a #1 McFarland standard. Inocula were prepared by suspending growth from an overnight blood agar plate in broth. The broth was incubated at 35° C. for 2-4 h in a shaking water bath until turbidity matched a #1 McFarland standard, and checked for viability by plate counts (Spangler, et al., Antimicrob. Agents Chemother. 41:2173-9176, 1997; Spangler, et al., Antimicrob. Agents Chemother. 42:1253-1255, 1998).
The PAE was defined as PAE=T-C; T=time required for viability counts of an antibiotic-exposed culture to increase by 1 log10 above counts immediately after dilution; C=corresponding time for growth control. For each experiment, viability counts (log10 cfu/ml) were plotted against time, and results expressed as the mean of two separate assays±S D (Craig, et al., V. Lorian (ed), Antibiotics in Laboratory Medicine, Williams and Wilkins, Baltimore, pages 296-329, 1996).

Each structure is given as a SMILES string. In brackets after ≈: the same amount, converted by molar mass. Where two headings read alike, the source gives them in different places.

The values that follow come from US20040044006A1, “Methods of use of quinolone compounds against pneumococcal and haemophilus bacteria” (priority 1999, published 2004).

By MIC50 is commonly meant an inhibitory concentration at the 50% level, which refers to growth in some studies and to a panel of isolates in others. The low end stands for higher susceptibility, the high end for lower susceptibility. By MIC90 is commonly meant the lowest concentration that inhibits either 90% of growth or 90% of the strains tested, depending on the study. The MIC is the smallest concentration in the dilution series that meets the test's criterion for growth inhibition.

Take `CO/N=C(\C(=O)N[C@@H]1C(=O)N2C(C(=O)O)=C(COC(N)=O)CS[C@H]12)c1ccco1` [Cefuroxime, cefuroxime]: the “concentration at which bactericidal after 24 h” value in assay [1] stood at 4 ×MIC. The MIC50 in assay [2] (Penicillin I strains) was 0.5 µg/mL (≈ 1.18 µM); in assay [2] (Penicillin R strains), 8 µg/mL (≈ 18.9 µM); in assay [2] (Penicillin S strains), 0.03 µg/mL (≈ 0.0707 µM). In addition, the results for the MIC90 in assay [2] (Penicillin I strains), in assay [2] (Penicillin R strains) and in assay [2] (Penicillin S strains) were 2 µg/mL (≈ 4.71 µM), 16 µg/mL (≈ 37.7 µM) and 0.25 µg/mL (≈ 0.589 µM), respectively. Besides, the MIC in assay [2] (Penicillin I strains) was 0.125 to 8 µg/mL (≈ 0.295 to 18.9 µM); in assay [2] (Penicillin R strains), 0.5 to 32 µg/mL (≈ 1.18 to 75.4 µM); in assay [2] (Penicillin S strains) it was 0.008 to 2 µg/mL (≈ 0.0189 to 4.71 µM); in the assay on pneumococcal strains (strain 1 (S) penicillin susceptible), 0.5 µg/mL (≈ 1.18 µM); in the assay on pneumococcal strains (strain 2 (S) penicillin susceptible) it was 0.25 µg/mL (≈ 0.589 µM); in the assay on pneumococcal strains (strain 3 (S) penicillin susceptible, quinolone-resistant), 0.016 µg/mL (≈ 0.0377 µM). Besides, the MIC with pneumococcal strains (strain 4 (S) penicillin susceptible, quinolone-resistant) is 0.016 µg/mL (≈ 0.0377 µM); with pneumococcal strains (strain 5 (I) penicillin intermediate) it was 0.5 µg/mL (≈ 1.18 µM); in the assay with pneumococcal strains (strain 6 (I) penicillin intermediate), 0.5 µg/mL (≈ 1.18 µM); with pneumococcal strains (strain 7 (I) penicillin intermediate) it was 0.5 µg/mL (≈ 1.18 µM); in the assay on pneumococcal strains (strain 8 (I) penicillin intermediate), 0.25 µg/mL (≈ 0.589 µM); with pneumococcal strains (strain 9 (R) penicillin resistant) it was 2 µg/mL (≈ 4.71 µM). The results for the MIC in the assay with pneumococcal strains (strain 10 (I)), with pneumococcal strains (strain 11 (R) penicillin resistant) and in the assay with pneumococcal strains (strain 12 (R) penicillin resistant) were 0.5 µg/mL (≈ 1.18 µM), 4 µg/mL (≈ 9.43 µM) and 2 µg/mL (≈ 4.71 µM), respectively. Moreover, the “PAE for non-quinolone compounds” value in assay [3] is 0.8 to 2.9 h.
